From ChEMBL document CHEMBL1151757, “Synthesis, radiosynthesis, and biological evaluation of fluorine-18-labeled 2beta-carbo(fluoroalkoxy)-3beta-(3'-((Z)-2-haloethenyl)phenyl)nortropanes: candidate radioligands for in vivo imaging of the serotonin transporter with positron emission tomography” (J Med Chem, 2008)

System: not listed separately
Test: Ratio of drug uptake in pons to cerebellum in anesthetized cynomolgus monkey after 185 mins postinjection
Assay type: ADME, organism-based, Macaca fascicularis
Conditions: in vivo

Row | Compound | Ratio
1 | O=C(OCC[18F])C1C2CCC(CC1c1ccc(/C=C\I)cc1)N2 (stereo not given) | 2.6

System: Medulla
Test: Drug uptake in anesthetized cynomolgus monkey brain medulla after 55 mins postinjection
Assay type: ADME, organism-based, Macaca fascicularis
Conditions: in vivo

Row | Compound | Drug uptake
2 | O=C(OCC[18F])C1C2CCC(CC1c1ccc(/C=C\I)cc1)N2 (stereo not given) | 3.78

System: Pons
Test: Drug uptake in anesthetized cynomolgus monkey brain pons after 235 mins postinjection
Assay type: ADME, organism-based, Macaca fascicularis
Conditions: in vivo

Row | Compound | Drug uptake
3 | O=C(OCC[18F])C1C2CCC(CC1c1ccc(/C=C\I)cc1)N2 (stereo not given) | 3.06

System: Pons
Test: Drug uptake in anesthetized cynomolgus monkey brain pons after 22.5 mins postinjection
Assay type: ADME, organism-based, Macaca fascicularis
Conditions: in vivo, 0.375 h

Row | Compound | Drug uptake
4 | O=C(OCC[18F])C1C2CCC(CC1c1ccc(/C=C\I)cc1)N2 (stereo not given) | 2.4

System: Caudate
Test: Drug uptake in anesthetized cynomolgus monkey brain caudate after 22.5 mins postinjection
Assay type: ADME, organism-based, Macaca fascicularis, Caudate nucleus
Conditions: in vivo, 0.375 h

Row | Compound | Drug uptake
5 | O=C(OCC[18F])C1C2CCC(CC1c1ccc(/C=C\I)cc1)N2 (stereo not given) | 2.05

System: Putamen
Test: Drug uptake in anesthetized cynomolgus monkey brain putamen after 4.5 mins postinjection
Assay type: ADME, organism-based, Macaca fascicularis
Design: unit not given here
Conditions: in vivo, 0.075 h

Row | Compound | Drug uptake
6 | O=C(OCC[18F])C1C2CCC(CC1c1ccc(/C=C\I)cc1)N2 (stereo not given) | 1.18

System: Medulla
Test: Drug uptake in anesthetized cynomolgus monkey brain medulla after 135 mins postinjection
Assay type: ADME, organism-based, Macaca fascicularis
Conditions: in vivo, 2.25 h

Row | Compound | Drug uptake
7 | O=C(OCC[18F])C1C2CCC(CC1c1ccc(/C=C\I)cc1)N2 (stereo not given) | 3.69

System: Caudate
Test: Drug uptake in anesthetized cynomolgus monkey brain caudate after 6.5 mins postinjection
Assay type: ADME, organism-based, Macaca fascicularis, Caudate nucleus
Conditions: in vivo

Row | Compound | Drug uptake
8 | O=C(OCC[18F])C1C2CCC(CC1c1ccc(/C=C\I)cc1)N2 (stereo not given) | 1.13

System: Putamen
Test: Drug uptake in anesthetized cynomolgus monkey brain putamen after 175 mins postinjection
Assay type: ADME, organism-based, Macaca fascicularis
Conditions: in vivo

Row | Compound | Drug uptake
9 | O=C(OCC[18F])C1C2CCC(CC1c1ccc(/C=C\I)cc1)N2 (stereo not given) | 3.1

System: Thalamus
Test: Drug uptake in anesthetized cynomolgus monkey brain thalamus after 9.5 mins postinjection
Assay type: ADME, organism-based, Macaca fascicularis
Design: unit not given here
Conditions: in vivo

Row | Compound | Drug uptake
10 | O=C(OCC[18F])C1C2CCC(CC1c1ccc(/C=C\I)cc1)N2 (stereo not given) | 2.06

System: Caudate
Test: Drug uptake in anesthetized cynomolgus monkey brain caudate after 135 mins postinjection
Assay type: ADME, organism-based, Macaca fascicularis, Caudate nucleus
Conditions: in vivo, 2.25 h

Row | Compound | Drug uptake
11 | O=C(OCC[18F])C1C2CCC(CC1c1ccc(/C=C\I)cc1)N2 (stereo not given) | 3.1

System: Medulla
Test: Drug uptake in anesthetized cynomolgus monkey brain medulla after 9.5 mins postinjection
Assay type: ADME, organism-based, Macaca fascicularis
Conditions: in vivo

Row | Compound | Drug uptake
12 | O=C(OCC[18F])C1C2CCC(CC1c1ccc(/C=C\I)cc1)N2 (stereo not given) | 2.45

System: Pons
Test: Drug uptake in anesthetized cynomolgus monkey brain pons after 3.5 mins postinjection
Assay type: ADME, organism-based, Macaca fascicularis
Conditions: in vivo

Row | Compound | Drug uptake
13 | O=C(OCC[18F])C1C2CCC(CC1c1ccc(/C=C\I)cc1)N2 (stereo not given) | 0.67

System: Medulla
Test: Drug uptake in anesthetized cynomolgus monkey brain medulla after 225 mins postinjection
Assay type: ADME, organism-based, Macaca fascicularis
Conditions: in vivo, 3.75 h

Row | Compound | Drug uptake
14 | O=C(OCC[18F])C1C2CCC(CC1c1ccc(/C=C\I)cc1)N2 (stereo not given) | 3.24

System: Pons
Test: Drug uptake in anesthetized cynomolgus monkey brain pons after 95 mins postinjection
Assay type: ADME, organism-based, Macaca fascicularis
Conditions: in vivo

Row | Compound | Drug uptake
15 | O=C(OCC[18F])C1C2CCC(CC1c1ccc(/C=C\I)cc1)N2 (stereo not given) | 3.5

System: Thalamus
Test: Drug uptake in anesthetized cynomolgus monkey brain thalamus after 35 mins postinjection
Assay type: ADME, organism-based, Macaca fascicularis
Design: unit not given here
Conditions: in vivo

Row | Compound | Drug uptake
16 | O=C(OCC[18F])C1C2CCC(CC1c1ccc(/C=C\I)cc1)N2 (stereo not given) | 3.31

System: Caudate
Test: Drug uptake in anesthetized cynomolgus monkey brain caudate after 185 mins postinjection
Assay type: ADME, organism-based, Macaca fascicularis, Caudate nucleus
Conditions: in vivo

Row | Compound | Drug uptake
17 | O=C(OCC[18F])C1C2CCC(CC1c1ccc(/C=C\I)cc1)N2 (stereo not given) | 2.97

System: not listed separately
Test: Ratio of drug uptake in pons to cerebellum in anesthetized cynomolgus monkey after 215 mins postinjection
Assay type: ADME, organism-based, Macaca fascicularis
Conditions: in vivo

Row | Compound | Ratio
18 | O=C(OCC[18F])C1C2CCC(CC1c1ccc(/C=C\I)cc1)N2 (stereo not given) | 2.9

System: not listed separately
Test: Ratio of drug uptake in frontal lobe to cerebellum in anesthetized cynomolgus monkey after 195 mins postinjection
Assay type: ADME, organism-based, Macaca fascicularis
Conditions: in vivo, 3.25 h

Row | Compound | Ratio
19 | O=C(OCC[18F])C1C2CCC(CC1c1ccc(/C=C\I)cc1)N2 (stereo not given) | 1.3

System: not listed separately
Test: Drug uptake in anesthetized cynomolgus monkey brain frontal lobe after 225 mins postinjection
Assay type: ADME, organism-based, Macaca fascicularis
Conditions: in vivo, 3.75 h

Row | Compound | Drug uptake
20 | O=C(OCC[18F])C1C2CCC(CC1c1ccc(/C=C\I)cc1)N2 (stereo not given) | 1.56

System: not listed separately
Test: Ratio of drug uptake in medulla to cerebellum in anesthetized cynomolgus monkey after 195 mins postinjection
Assay type: ADME, organism-based, Macaca fascicularis
Conditions: in vivo, 3.25 h

Row | Compound | Ratio
21 | O=C(OCC[18F])C1C2CCC(CC1c1ccc(/C=C\I)cc1)N2 (stereo not given) | 2.6

System: Pons
Test: Drug uptake in anesthetized cynomolgus monkey brain pons after 115 mins postinjection
Assay type: ADME, organism-based, Macaca fascicularis
Conditions: in vivo

Row | Compound | Drug uptake
22 | O=C(OCC[18F])C1C2CCC(CC1c1ccc(/C=C\I)cc1)N2 (stereo not given) | 3.65

System: Pons
Test: Drug uptake in anesthetized cynomolgus monkey brain pons after 4.5 mins postinjection
Assay type: ADME, organism-based, Macaca fascicularis
Conditions: in vivo, 0.075 h

Row | Compound | Drug uptake
23 | O=C(OCC[18F])C1C2CCC(CC1c1ccc(/C=C\I)cc1)N2 (stereo not given) | 0.8

System: Medulla
Test: Drug uptake in anesthetized cynomolgus monkey brain medulla after 125 mins postinjection
Assay type: ADME, organism-based, Macaca fascicularis
Conditions: in vivo

Row | Compound | Drug uptake
24 | O=C(OCC[18F])C1C2CCC(CC1c1ccc(/C=C\I)cc1)N2 (stereo not given) | 3.81

System: Medulla
Test: Drug uptake in anesthetized cynomolgus monkey brain medulla after 45 mins postinjection
Assay type: ADME, organism-based, Macaca fascicularis
Conditions: in vivo, 0.75 h

Row | Compound | Drug uptake
25 | O=C(OCC[18F])C1C2CCC(CC1c1ccc(/C=C\I)cc1)N2 (stereo not given) | 3.69
